Literature values in publication PMC12323621, “Exploring the antimicrobial activity of pantothenamides against uropathogenic Escherichia coli” (Microbiology Spectrum, 2025).
≈ marks a conversion by molar mass, not a printed value.

Key:
UPEC strain CFT073 [1] = test system: UPEC strain CFT073; design: method as in PMID 37107054; details: cited from earlier work
UPEC strain CFT073 [2] = test system: UPEC strain CFT073; design: method as in PMID 37107054; details: 1 combined with BAP; cited from earlier work
serum pantetheinases = details: cited from earlier work
mammalian cells = details: cited from earlier work

Row | SMILES | fold drop in potency in urine versus MOPS-glycerol (UPEC strain CFT073 [1]; UPEC CFT073) [fold] | MIC in commercial pooled human urine (UPEC strain CFT073 [1]; UPEC, commercial pooled human urine) [µM] | interaction with BAP against UPEC in urine (UPEC strain CFT073 [2]) | stability in the presence of serum pantetheinases (serum pantetheinases) | toxicity to mammalian cells (mammalian cells)
1 | CCCCCNC(=O)CCNC(=O)[C@H](O)C(C)(C)CO [compound 1, N-pentylpantothenamide, reference compound] | ≥ 30 | 156 (≈ 45 µg/mL) | synergy |  | 
2 | CCCCCNC(=O)CNC(=O)[C@H](O)C(C)(C)CO [compound 6, N5-α-pantothenamide] |  |  |  | stable | non-toxic
